Source: US20260217708A1, “FUSED BENZAZEPINE DERIVATIVES FOR USE IN THE TREATMENT OF CANCER AND EPILEPSY” (UCB BIOPHARMA SRL, priority 2023, published 2026)

Key:
system Xc^− [1] = target: T1, system Xc^− (Homo sapiens, UniProt Q9UPY5); assay: [^14C]L-Cystine uptake assay; assay type: cell-based; set-up: endogenous in cells; host or cells: H4 cells; settings: H4 cells, sodium-free HEPES buffer, 0.5 μM L-[14C]Cystine and 4.5 μM L-Cystine, 1 hour at 37° C.; read-out: pIC50 [^14C] L-Cystine uptake assay (converted)
T1 sequence (Q9UPY5 1-501): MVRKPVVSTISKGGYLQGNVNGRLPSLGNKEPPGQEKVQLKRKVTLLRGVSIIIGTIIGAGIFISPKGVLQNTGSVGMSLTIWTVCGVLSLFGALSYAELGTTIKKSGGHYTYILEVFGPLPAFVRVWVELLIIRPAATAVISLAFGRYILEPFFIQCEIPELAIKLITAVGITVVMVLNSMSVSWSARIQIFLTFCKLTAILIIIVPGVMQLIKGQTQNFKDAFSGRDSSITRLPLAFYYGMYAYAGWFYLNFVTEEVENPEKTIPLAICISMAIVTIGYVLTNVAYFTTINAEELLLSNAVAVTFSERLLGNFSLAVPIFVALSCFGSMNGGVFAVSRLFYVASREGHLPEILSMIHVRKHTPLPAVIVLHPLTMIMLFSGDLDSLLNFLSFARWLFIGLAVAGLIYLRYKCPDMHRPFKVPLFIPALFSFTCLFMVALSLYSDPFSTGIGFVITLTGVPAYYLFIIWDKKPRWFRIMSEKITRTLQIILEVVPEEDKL
T1 sequence (P08195 1-529 partner): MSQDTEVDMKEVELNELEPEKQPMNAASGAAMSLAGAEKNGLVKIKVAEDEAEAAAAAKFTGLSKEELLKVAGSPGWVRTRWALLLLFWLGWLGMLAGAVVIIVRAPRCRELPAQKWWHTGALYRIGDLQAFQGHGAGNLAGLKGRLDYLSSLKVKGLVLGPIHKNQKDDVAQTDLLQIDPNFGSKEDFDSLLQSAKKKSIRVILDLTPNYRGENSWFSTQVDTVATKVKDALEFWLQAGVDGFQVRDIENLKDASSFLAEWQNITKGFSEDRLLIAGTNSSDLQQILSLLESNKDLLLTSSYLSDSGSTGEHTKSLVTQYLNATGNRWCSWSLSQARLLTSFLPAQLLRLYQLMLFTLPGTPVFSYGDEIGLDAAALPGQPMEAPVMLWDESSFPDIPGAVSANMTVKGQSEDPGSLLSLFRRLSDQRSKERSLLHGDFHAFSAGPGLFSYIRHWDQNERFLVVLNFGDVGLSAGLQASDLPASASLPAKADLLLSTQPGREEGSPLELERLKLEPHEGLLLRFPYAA
How it was run: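 Compound effect is given as pIC50, taken between controls of 1% DMSO and 50 μM Erastin. Human H4 cells were pretreated 15 min with compound in sodium-free buffer, then took up 0.5 μM [14C]cystine with 4.5 μM cold cystine for 1 hour at 37° C, read by scintillation proximity counting.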

system Xc^− [2] = target: T1, system Xc^−; assay: Cystine-induced glutamate release assay; assay type: cell-based; set-up: endogenous in cells; host or cells: H4 cells; settings: H4 cells, sodium-free HEPES buffer, 50 μM L-Cystine, 2 hours, Amplex Red glutamate readout; read-out: pIC50 Cystine-induced glutamate release assay (converted)
How it was run: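 IC50 (reported as pIC50) normalized to DMSO 1% and Erastin 50 μM controls, from Amplex Red fluorescence of glutamate exported into supernatant. H4 cells were washed into sodium-free buffer to exclude EAAT transport, then given compound with 50 μM L-cystine for 2 h in the incubator.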

CC1C(=O)N(CC(=O)Nc2ccc(Cl)c(F)c2)c2cc(N(C)CCN(C)C)nc(F)c2-c2cccnc21 (single isomer, unassigned) [#266, N-(4-chloro-3-fluoro-phenyl)-2-[5-[2-(dimethylamino)ethyl-methyl-amino]-3-fluoro-10-methyl-9-oxo-4,8,12-triazatricyclo[9.4.0.0^2,7]pentadeca-1(15),2,4,6,11,13-hexaen-8-yl]acetamide]
IC50 (system Xc^− [1]): 15.8 to 39.8 nM
IC50 (system Xc^− [2]): 15.8 to 39.8 nM

CC1C(=O)N(CC(=O)Nc2ccc(Cl)c(F)c2)c2cc(N3CC4(CC4)C3)nc(F)c2-c2cccnc21 (single isomer, unassigned) [#267, 2-[5-(5-azaspiro[2.3]hexan-5-yl)-3-fluoro-10-methyl-9-oxo-4,8,12-triazatricyclo[9.4.0.0^2,7]pentadeca-1(15),2,4,6,11,13-hexaen-8-yl]-N-(4-chloro-3-fluoro-phenyl)acetamide]
IC50 (system Xc^− [1]): 39.8 to 100 nM
IC50 (system Xc^− [2]): 15.8 to 39.8 nM

CC1C(=O)N(CC(=O)Nc2ccc(Cl)c(F)c2)c2cc(N3CC(F)(F)C3)nc(F)c2-c2cccnc21 (single isomer, unassigned) [#268, N-(4-chloro-3-fluoro-phenyl)-2-[5-(3,3-difluoroazetidin-1-yl)-3-fluoro-10-methyl-9-oxo-4,8,12-triazatricyclo[9.4.0.0^2,7]pentadeca-1(15),2,4,6,11,13-hexaen-8-yl]acetamide]
IC50 (system Xc^− [1]): < 15.8 nM
IC50 (system Xc^− [2]): < 15.8 nM

CC1C(=O)N(CC(=O)Nc2ccc(Cl)c(F)c2)c2cc(N3[C@@H]4CCC[C@H]3C4)nc(F)c2-c2cccnc21 (single isomer, unassigned) [#269, 2-[5-(6-azabicyclo[3.1.1]heptan-6-yl)-3-fluoro-10-methyl-9-oxo-4,8,12-triazatricyclo[9.4.0.0^2,7]pentadeca-1(11),2(7),3,5,12,14-hexaen-8-yl]-N-(4-chloro-3-fluoro-phenyl)acetamide]
IC50 (system Xc^− [1]): 39.8 to 100 nM
IC50 (system Xc^− [2]): 39.8 to 100 nM

CC1C(=O)N(CC(=O)Nc2ccc(Cl)c(F)c2)c2cc(N3CC4(C3)CC4(F)F)nc(F)c2-c2cccnc21 (single isomer, unassigned) [#270, N-(4-chloro-3-fluoro-phenyl)-2-[5-(2,2-difluoro-5-azaspiro[2.3]hexan-5-yl)-3-fluoro-10-methyl-9-oxo-4,8,12-triazatricyclo[9.4.0.0^2,7]pentadeca-1(15),2,4,6,11,13-hexaen-8-yl]acetamide]
IC50 (system Xc^− [1]): 39.8 to 100 nM
IC50 (system Xc^− [2]): 39.8 to 100 nM

CC1C(=O)N(CC(=O)Nc2ccc(C(F)F)cc2)c2cc(N3CC(F)C3)nc(F)c2-c2cccnc21 (single isomer, unassigned) [#274, N-[4-(difluoromethyl)phenyl]-2-[3-fluoro-5-(3-fluoroazetidin-1-yl)-10-methyl-9-oxo-4,8,12-triazatricyclo[9.4.0.0^2,7]pentadeca-1(15),2,4,6,11,13-hexaen-8-yl]acetamide]
IC50 (system Xc^− [1]): < 15.8 nM
IC50 (system Xc^− [2]): < 15.8 nM

CC1C(=O)N(CC(=O)Nc2ccc(C(F)F)cc2)c2cc(N3CC(C)(O)C3)nc(F)c2-c2cccnc21 (single isomer, unassigned) [#275, N-[4-(difluoromethyl)phenyl]-2-[3-fluoro-5-(3-hydroxy-3-methyl-azetidin-1-yl)-10-methyl-9-oxo-4,8,12-triazatricyclo[9.4.0.0^2,7]pentadeca-1(15),2,4,6,11,13-hexaen-8-yl]acetamide]
IC50 (system Xc^− [1]): < 15.8 nM
IC50 (system Xc^− [2]): < 15.8 nM

C[C@@H]1C(=O)N(CC(=O)Nc2ccc(C(F)F)cc2)c2cc(N3CC[C@@H](F)C3)nc(F)c2-c2cccnc21 (single isomer, unassigned) [#276, N-[4-(difluoromethyl)phenyl]-2-[3-fluoro-5-[3-fluoropyrrolidin-1-yl]-10-methyl-9-oxo-4,8,12-triazatricyclo[9.4.0.0^2,7]pentadeca-1(15),2,4,6,11,13-hexaen-8-yl]acetamide]
IC50 (system Xc^− [1]): < 15.8 nM
IC50 (system Xc^− [2]): < 15.8 nM

C[C@@H]1C(=O)N(CC(=O)Nc2ccc(C(F)F)cc2)c2cc(N3CC[C@@H](F)C3)nc(F)c2-c2cccnc21 (single isomer, unassigned) [#277, N-[4-(difluoromethyl)phenyl]-2-[3-fluoro-5-[3-fluoropyrrolidin-1-yl]-10-methyl-9-oxo-4,8,12-triazatricyclo[9.4.0.0^2,7]pentadeca-1(15),2,4,6,11,13-hexaen-8-yl]acetamide]
IC50 (system Xc^− [1]): 15.8 to 39.8 nM
IC50 (system Xc^− [2]): 15.8 to 39.8 nM

CC1C(=O)N(CC(=O)Nc2ccc(C(F)F)cc2)c2cc(N3CCC(F)(F)C3)nc(F)c2-c2cccnc21 (single isomer, unassigned) [#278, N-[4-(difluoromethyl)phenyl]-2-[5-(3,3-difluoropyrrolidin-1-yl)-3-fluoro-10-methyl-9-oxo-4,8,12-triazatricyclo[9.4.0.0^2,7]pentadeca-1(15),2,4,6,11,13-hexaen-8-yl]acetamide]
IC50 (system Xc^− [1]): 15.8 to 39.8 nM
IC50 (system Xc^− [2]): 39.8 to 100 nM

C[C@H]1C(=O)N(CC(=O)Nc2ccc(C(F)F)cc2)c2cc(N3CC[C@H](O)C3)nc(F)c2-c2cccnc21 (single isomer, unassigned) [#279, N-[4-(difluoromethyl)phenyl]-2-[3-fluoro-5-[3-hydroxypyrrolidin-1-yl]-10-methyl-9-oxo-4,8,12-triazatricyclo[9.4.0.0^2,7]pentadeca-1(15),2,4,6,11,13-hexaen-8-yl]acetamide]
IC50 (system Xc^− [1]): < 15.8 nM
IC50 (system Xc^− [2]): < 15.8 nM

CC1C(=O)N(CC(=O)Nc2ccc(C(F)F)cc2)c2cc(N3CC(F)(F)C3)nc(F)c2-c2cccnc21 (single isomer, unassigned) [#280, 2-[5-(3,3-difluoroazetidin-1-yl)-3-fluoro-10-methyl-9-oxo-4,8,12-triazatricyclo[9.4.0.0^2,7]pentadeca-1(11),2(7),3,5,12,14-hexaen-8-yl]-N-[4-(difluoromethyl)phenyl]acetamide]
IC50 (system Xc^− [1]): < 15.8 nM
IC50 (system Xc^− [2]): < 15.8 nM

CC1C(=O)N(CC(=O)Nc2ccc(C(F)F)cc2)c2cc(N3CC4(C3)CC(F)(F)C4)nc(F)c2-c2cccnc21 (single isomer, unassigned) [#281, 2-[5-(6,6-difluoro-2-azaspiro[3.3]heptan-2-yl)-3-fluoro-10-methyl-9-oxo-4,8,12-triazatricyclo[9.4.0.0^2,7]pentadeca-1(15),2,4,6,11,13-hexaen-8-yl]-N-[4-(difluoromethyl)phenyl]acetamide]
IC50 (system Xc^− [1]): 39.8 to 100 nM
IC50 (system Xc^− [2]): 39.8 to 100 nM

CC1C(=O)N(CC(=O)Nc2ccc(C(F)F)cc2)c2cc(N3CC4(CCOC4)C3)nc(F)c2-c2cccnc21 (single isomer, unassigned) [#282, N-[4-(difluoromethyl)phenyl]-2-[3-fluoro-10-methyl-5-(6-oxa-2-azaspiro[3.4]octan-2-yl)-9-oxo-4,8,12-triazatricyclo[9.4.0.0^2,7]pentadeca-1(15),2,4,6,11,13-hexaen-8-yl]acetamide]
IC50 (system Xc^− [1]): < 15.8 nM
IC50 (system Xc^− [2]): 15.8 to 39.8 nM

CC1C(=O)N(CC(=O)Nc2ccc(C(F)F)cc2)c2cc(N3CC4(CC4)C3)nc(F)c2-c2cccnc21 (single isomer, unassigned) [#283, 2-[5-(5-azaspiro[2.3]hexan-5-yl)-3-fluoro-10-methyl-9-oxo-4,8,12-triazatricyclo[9.4.0.0^2,7]pentadeca-1(15),2,4,6,11,13-hexaen-8-yl]-N-[4-(difluoromethyl)phenyl]acetamide]
IC50 (system Xc^− [1]): 15.8 to 39.8 nM
IC50 (system Xc^− [2]): < 15.8 nM
